Test results: US9301526B2, “Compounds with nematicidal activity” (BAYER INTELLECTUAL PROPERTY GMBH, priority 2011, dated 2016)

Tested on: Haemonchus contortus larvae
Assay: Haemonchus contortus test (HAEMCO), larval mortality
Assay type: in vivo
Settings: application rate 20 ppm; after 5 days; 100% = all larvae killed
Procedure: Haemonchus contortus—Test (HAEMCO)
(§1) Solvent: dimethyl sulfoxide
(§2) To produce a suitable preparation of active compound, 10 mg of active compound are dissolved in 0.5 ml solvent, and the concentrate is diluted with “Ringer's solution” to the desired concentration.
Approximately 40 Haemonchus contortus larvae are transferred into a test tube containing compound solution. After 5 days percentage of larval mortality are recorded. 100% efficacy means all larvae are killed, 0% efficacy means no larvae are killed.

| SMILES | activity (percentage of larval mortality) |
| --- | --- |
| O=C(NCCc1cnc(C(F)(F)F)cc1Cl)c1ccccc1Br [Ib-52] | 80% |

Same assay, conditions: application rate 100 ppm; after 5 days; 100% = all larvae killed

| SMILES | activity (percentage of larval mortality) |
| --- | --- |
| O=C(NCCc1cnc(C(F)(F)F)cc1Cl)c1c(F)cccc1F [Ib-51] | 90% |
| O=C(NCCc1c(F)c(F)nc(F)c1F)c1ccccc1C(F)(F)F [Ic-1] | 100% |
| O=C(NCCc1cnc(C(F)(F)F)cc1Cl)c1ccccc1Cl [Ib-49] | 100% |
| O=C(NCCc1cnc(C(F)(F)F)cc1Cl)c1ccccc1C(F)(F)F [Ib-47] | 100% |
| COC(=O)C(CNC(=O)c1ccccc1C(F)(F)F)(C(=O)OC)c1ncc(C(F)(F)F)cc1Cl [Ia-1] | 90% |
| O=C(NCCc1cc(F)ncc1F)c1ccccc1C(F)(F)F [Ic-7] | 100% |
| O=C(NCCc1cnc(C(F)(F)F)cc1Cl)c1ccccc1C(F)F [Ib-50] | 100% |
| O=C(NCCc1cnc(C(F)(F)F)cc1Cl)c1ccccc1F [Ib-48] | 90% |
| CCOC(=O)C(CNC(=O)c1ccccc1C(F)(F)F)(C(=O)OC)c1ncc(C(F)(F)F)cc1Cl (centres unmarked) [Ia-6] | 80% |
| COC(=O)C(CNC(=O)c1ccccc1C(F)(F)F)c1ncc(C(F)(F)F)cc1Cl (centres unmarked) [Ia-5] | 80% |
| O=C(NCC1(c2ccc(Cl)cn2)CC1)c1ccccc1C(F)(F)F [Ia-48] | 80% |

Tested on: Cooperia curticei larvae
Assay: Cooperia curticei test (COOPCU), larval mortality
Assay type: in vivo
Settings: application rate 100 ppm; after 5 days; 100% = all larvae killed
Procedure: Cooperia Curticei-Test (COOPCU)
as §1, §2
Approximately 40 Cooperia curticei larvae are transferred into a test tube containing compound solution. After 5 days percentage of larval mortality are recorded. 100% efficacy means all larvae are killed; 0% efficacy means no larvae are killed.

| SMILES | activity (percentage of larval mortality) |
| --- | --- |
| COc1cc(CCNC(=O)c2ccc(C(F)(F)F)cc2)ccn1 [Ic-60] | 90% |
| O=C(NCCc1c(Cl)cncc1Cl)c1ccc(F)c(F)c1 [Ic-26] | 80% |
| O=C(NCCc1cnc(C(F)(F)F)cc1Cl)c1ccccc1F [Ib-48] | 90% |
| CCc1ccc(C(=O)NCCc2ccnc(OC)c2)cc1 [Ic-58] | 80% |
| COc1cc(CCNC(=O)c2ccccc2OC)ccn1 [Ic-59] | 90% |
| COc1cc(CCNC(=O)c2cccc(Cl)c2)ccn1 [Ic-75] | 90% |

Tested on: Meloidogyne incognita
Assay: Meloidogyne incognita test (gall formation on salad seedlings in sand)
Assay type: in vivo
Settings: application rate 20 ppm; after 14 days; 100% = no galls, 0% = galls equal to untreated control
Procedure: Meloidogyne Incognita—Test
Solvent: 125.0 parts by weight of acetone
To produce a suitable preparation of active compound, 1 part by weight of active compound is mixed with the stated amount of solvent, and the concentrate is diluted with water to the desired concentration. Vessels are filled with sand, a solution of the active ingredient, a suspension containing eggs and larvae of Meloidogyne incognita and salad seeds. The salad seeds germinate and the seedlings grow. Galls develop in the roots.
After 14 days the nematicidal activity is determined on the basis of the percentage of gall formation. 100% means that no galls were found; 0% means that the number of galls found on the roots of the treated plants was equal to that in untreated control plants.

| SMILES | nematicidal activity on the basis of the percentage of gall formation |
| --- | --- |
| O=C(NCCc1cnc(C(F)(F)F)cc1Cl)c1c(F)cccc1F [Ib-51] | 70% |
| CC(Cc1ncc(C(F)(F)F)cc1Cl)NC(=O)c1ccccc1C(F)(F)F (single isomer, unassigned) [Ia-122] | 100% |
| O=C(NCC(F)(F)c1ncc(C(F)(F)F)cc1Cl)c1ccccc1C(F)(F)F [Ia-148] | 100% |
| CC(NC(=O)c1ccccc1C(F)(F)F)C(CC1CC1)c1ncc(C(F)(F)F)cc1Cl (mixture of isomers) [Ia-143] | 100% |
| CC(Cc1ncc(C(F)(F)F)cc1Cl)NC(=O)c1ccccc1[N+](=O)[O-] (centres unmarked) [Ia-196] | 90% |
| CC(Cc1ncc(C(F)(F)F)cc1Cl)NC(=O)c1ccccc1C(F)F (centres unmarked) [Ia-154] | 100% |
| CC(CNC(=O)c1ccccc1I)c1ccc(C(F)(F)F)c(Cl)n1 (centres unmarked) [Ia-50] | 100% |
| O=C(NCCc1c(F)c(F)nc(F)c1F)c1ccccc1C(F)(F)F [Ic-1] | 100% |
| O=C(NCCc1cnc(C(F)(F)F)cc1Cl)c1ccccc1C(F)(F)F [Ib-47] | 90% |
| CC(C)(CNC(=O)c1ccccc1C(F)(F)F)c1ncc(C(F)(F)F)cc1Cl [Ia-93, N-{2-[3-chloro-5-(trifluoromethyl)pyridin-2-yl]-2-methylpropyl}-2-(trifluoromethyl)benzamide] | 100% |
| CC(Cc1ncc(C(F)(F)F)cc1Cl)NC(=O)c1ccccc1I (centres unmarked) [Ia-140] | 100% |
| CN(C)C(CNC(=O)c1ccccc1Cl)c1ncc(C(F)(F)F)cc1Cl (centres unmarked) [Ia-211] | 90% |
| CC(Cc1ncc(C(F)(F)F)cc1Cl)NC(=O)c1c(F)cccc1F (centres unmarked) [Ia-170] | 90% |
| O=C(NCCc1cnc(C(F)(F)F)cc1Cl)c1ccccc1[N+](=O)[O-] [Ib-58] | 90% |
| O=C(NCCc1cc(F)ncc1F)c1ccccc1C(F)(F)F [Ic-7] | 100% |
| CC(Cc1ncc(C(F)(F)F)cc1Cl)NC(=O)c1ccccc1C(F)(F)F (centres unmarked) [Ia-43] | 100% |
| Cc1cc(CCNC(=O)c2ccccc2C(F)(F)F)c(Cl)cn1 [Ic-5] | 90% |
| CCC(CNC(=O)c1ccccc1C(F)(F)F)c1ccc(Cl)cn1 (centres unmarked) [Ia-131] | 100% |

| SMILES | nematicidal activity on the basis of the percentage of gall formation |
| --- | --- |
| O=C(NCCc1cnc(C(F)(F)F)cc1Cl)c1ccccc1C(F)F [Ib-50] | 70% |
| CC(CNC(=O)c1ccccc1C(F)(F)F)c1ccc(C(F)(F)F)cn1 (centres unmarked) [Ia-46] | 100% |
| CCC(Cc1ncc(C(F)(F)F)cc1Cl)NC(=O)c1ccccc1C(F)(F)F (centres unmarked) [Ia-110] | 100% |
| CC(CNC(=O)c1ccccc1C(F)(F)F)c1ncc(Cl)cc1Cl (centres unmarked) [Ia-113] | 100% |
| CC(Cc1ncc(C(F)(F)F)cc1Cl)NC(=O)c1c(F)cccc1C(F)(F)F (centres unmarked) [Ia-174] | 90% |
| CC(CNC(=O)c1ccccc1I)c1ncc(Cl)cc1Cl (centres unmarked) [Ia-114] | 100% |
| CC(Cc1ncc(C(F)(F)F)cc1Cl)NC(=O)c1ccccc1F (centres unmarked) [Ia-172] | 90% |
| CC(CNC(=O)c1ccccc1I)c1ccc(C(F)(F)F)cn1 (centres unmarked) [Ia-47] | 100% |
| CC(Cc1ncc(Cl)cc1Cl)NC(=O)c1ccccc1C(F)(F)F (centres unmarked) [Ia-3] | 100% |
| CC(Cc1ncc(C(F)(F)F)cc1Cl)NC(=O)c1ccccc1Br (centres unmarked) [Ia-153] | 100% |
| CC(CNC(=O)c1ccccc1I)c1ncc(C(F)(F)F)cc1Cl (centres unmarked) [Ia-177] | 100% |
| CN(C)C(CNC(=O)c1ccccc1C(F)(F)F)c1ncc(C(F)(F)F)cc1Cl (centres unmarked) [Ia-212] | 90% |
| O=C(NCC(F)(F)c1ncc(Cl)cc1Cl)c1ccccc1I [Ia-142] | 100% |
| CC(Cc1ncc(C(F)(F)F)cc1Cl)NC(=O)c1ccccc1Cl (centres unmarked) [Ia-141] | 100% |
| Cc1c(F)cccc1C(=O)NCC(C)c1ncc(C(F)(F)F)cc1Cl (centres unmarked) [Ia-70] | 100% |
| CC(CNC(=O)c1ccccc1C(F)(F)F)c1ncc(C(F)(F)F)cc1Cl (centres unmarked) [Ia-92] | 100% |
| O=C(NCCc1c(F)c(F)nc(F)c1F)c1ccccc1I [Ic-2] | 100% |
